Experiments:
influenza = assay type: cell-based
[1] = cited from earlier work
[2] = biological target: human carbonic anhydrase II (hCAII) (Homo sapiens, UniProt P00918); assay: Cross-inhibition screen, human carbonic anhydrase II; assay type: biochemical; details: 200 μM
HIV IN = HIV IN (Human immunodeficiency virus type 1 group M subtype B, UniProt P04585); assay type: biochemical; details: 200 μM
HDAC-6 = biological target: T1, HDAC-6 (Homo sapiens, UniProt Q9UBN7); assay: Cross-inhibition screen, HDAC-6; assay type: biochemical; details: 200 μM
T1 sequence (Q9UBN7 1-1215): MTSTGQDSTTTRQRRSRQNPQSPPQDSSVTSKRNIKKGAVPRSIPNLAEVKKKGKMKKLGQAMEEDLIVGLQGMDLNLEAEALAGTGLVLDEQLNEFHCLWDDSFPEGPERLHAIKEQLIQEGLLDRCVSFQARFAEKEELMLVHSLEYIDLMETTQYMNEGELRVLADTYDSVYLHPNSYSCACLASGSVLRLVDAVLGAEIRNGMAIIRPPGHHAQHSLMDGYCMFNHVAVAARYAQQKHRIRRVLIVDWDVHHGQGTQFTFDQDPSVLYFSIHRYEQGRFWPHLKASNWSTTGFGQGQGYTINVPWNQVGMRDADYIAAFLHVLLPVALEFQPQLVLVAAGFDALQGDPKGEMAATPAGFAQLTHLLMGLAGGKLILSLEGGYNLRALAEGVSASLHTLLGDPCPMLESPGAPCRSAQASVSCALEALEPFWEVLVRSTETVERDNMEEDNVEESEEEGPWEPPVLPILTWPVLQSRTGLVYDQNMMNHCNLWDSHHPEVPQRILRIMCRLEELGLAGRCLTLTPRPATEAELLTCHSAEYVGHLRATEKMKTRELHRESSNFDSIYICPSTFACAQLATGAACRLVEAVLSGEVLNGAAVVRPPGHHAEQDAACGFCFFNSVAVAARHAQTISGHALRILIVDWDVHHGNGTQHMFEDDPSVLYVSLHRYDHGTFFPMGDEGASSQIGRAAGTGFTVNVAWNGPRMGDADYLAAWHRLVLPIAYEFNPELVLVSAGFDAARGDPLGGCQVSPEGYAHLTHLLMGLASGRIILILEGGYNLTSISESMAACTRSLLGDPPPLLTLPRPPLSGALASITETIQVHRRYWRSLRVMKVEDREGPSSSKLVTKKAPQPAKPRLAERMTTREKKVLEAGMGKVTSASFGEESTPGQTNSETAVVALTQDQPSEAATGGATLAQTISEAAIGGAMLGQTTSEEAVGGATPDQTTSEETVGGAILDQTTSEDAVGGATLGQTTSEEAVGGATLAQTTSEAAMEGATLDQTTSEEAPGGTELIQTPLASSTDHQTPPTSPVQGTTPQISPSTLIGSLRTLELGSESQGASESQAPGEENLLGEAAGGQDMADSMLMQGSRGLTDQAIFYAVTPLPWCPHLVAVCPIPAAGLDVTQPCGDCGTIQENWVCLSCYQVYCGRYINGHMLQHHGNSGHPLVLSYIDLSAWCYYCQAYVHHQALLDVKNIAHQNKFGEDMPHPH

Compound	Antiviral activity in cell-based assays (influenza)	also measured
Cc1cc(=O)c(O)c(C(=O)O)[nH]1 [Compound 17, 3-Hydroxy-6-methyl-4-oxo-1,4-dihydropyridine-2-carboxylic acid]	little antiviral activity	–
Cc1cc(O)c(=O)c(O)cc1C(=O)O [Compound 33, 5-Methyl-2,7-dihydroxytropolone-4-carboxylic acid]	little antiviral activity	–
O=C(O)c1cccc(=O)n1O [Compound 5]	–	pKa reported ([1]; N-hydroxy donor oxygen): 7.51
O=C(O)c1occc(=O)c1O [Compound 3]	little antiviral activity	–
Cc1cc(C(=O)O)c(O)c(=O)[nH]1 [Compound 18]	little antiviral activity	–
Cc1cc(=O)c(O)c(C(=O)O)o1 [Compound 1, 3-Hydroxy-6-methyl-4-oxo-4H-pyran-2-carboxylic acid]	little antiviral activity	Percent inhibition, hCAII [2]: no inhibition; Percent inhibition, HIV IN 3'-processing activity (HIV IN): no inhibition; Percent inhibition, HDAC-6 (HDAC-6): no inhibition
O=c1cc[nH]c(-c2nnn[nH]2)c1O [Compound 27]	little antiviral activity	–
Cc1cc(=S)c(O)c(C(=O)O)o1 [Compound 22]	little antiviral activity	–
O=c1c(O)ccccc1O [Compound 32, α-hydroxytropolone]	little antiviral activity	–
O=C(O)c1cccc(O)c1O [Compound 7]	–	pKa reported, first value ([1]; phenolic oxygen): 10.30; pKa reported, second value ([1]; phenolic oxygen): 13.48

From PMC6249039 (Journal of medicinal chemistry, 2018)
